Data: patent US9732046B2, “Substituted 1,2,4-triazines as tubulin inhibitors” (YM Biosciences Australia Pty Ltd., priority 2003, dated 2017)

Tests used:
PC3 (Prostate Cancer) = experiment: Cellular growth inhibition assay (MTT), PC3; type: cell-based; conditions: Table 1, 40 hr incubation
Procedure: (§1) For screening purposes, compounds were diluted in 96 well plates at a concentration of 20 μM. Plates were warmed at 37° C. for 30 minutes before assay.
(§2) K562 (Chronic Myeloid Leukemia), PC3 (Prostate Cancer), and DU145 (Prostate Cancer) were obtained from the American Type Culture Collection (ATCC). K562 was grown in RPMI, with 10% FBS with Glutamx added. DU145 cells were cultured in DMED, with 10% FBS and Glutamx and MEM non-essential amino acids added. PC3 cells were grown in F12K medium, with 10% FBS and Glutamx and MEM non-essential amino acids added. All cells were grown at 37° C. in 5% CO2.
(§3) Cell suspensions were prepared by harvesting cells from culture. (Cells used in this test should be in later log phase growth and high viability.) Cells were diluted in correct growth medium to 1.1× final concentration (from 50000 cell/mL to 200,000 cell/mL, depending on cell line).
(§4) Compounds to be tested were added (10 μL, 10× final concentration) to a flat bottom 96-well plate. The cellular suspension (90 μL per well) was added, and the plate incubated for 40 hr at 37° C., 5% CO2. MTT (20 μL per well, 5 mg/mL in PBS) was added and the plates were returned to the incubator for a further 6 hours. Lysis buffer (100 μL per well, 10% SDS, 0.01N HCl) was added and the plate stored in the incubator overnight. The plate was then read at 590 nm.

[1] = target: T1, TelJak2 (BaF3 TELJAK cells, TEL/Jak2 fusion) (Homo sapiens, UniProt O60674); experiment: Cellular growth inhibition assay (MTT), BaF3 TEL:JAK2 cell line; type: cell-based; conditions: Table 1, 40 hr incubation
T1 construct: The regions encompassing the kinase domain of JAK2 (nucleotides 2994-3914); expressed in transfected cells; host or cells: BaF3 cells bearing the pTET-off plasmid, transfected with pTELJAK2 (pTRE2 vector); the other entry of the earlier key: ETV6 (P41212, Transcription factor ETV6)
Procedure: as §1
(§5) The coding region encompassing nucleotides 1-487 of TEL was amplified by PCR using the oligonucleotides 5TEL (5′-GGAGGATCCTGATCTCTCTCGCTGTGAGAC-3′) (SEQ ID NO: 1) and 3TEL (5′-AGGC GTCGACTTCTTCTTGATGGTTCTG-3′) (SEQ ID NO: 2) and U937 mRNA as template. A BamH I site was incorporated into the 5TEL primer, and a Sal I site was incorporated into the 3TEL primer. The regions encompassing the kinase domain of JAK2 (nucleotides 2994-3914; JAK2F 5′-ACGC GTCGACGGTGCCTTTGAAGACCGGGAT-3 (SEQ ID NO: 3); JAK2R 5′-ATAGTTTAGCGGCCGCTCAGAATGAAGGTCATTT-3′) (SEQ ID NO: 4) and JAK3 (nucleotides 2520-3469; JAK3F 5′-GAAGTCGACTATGCCTGCCAAGACCCCACGATCTT-3′ (SEQ ID NO: 5); JAK3R 5′-GGATCTAGACTATGAAAAGGACAGGGAGTGGTGTTT-3′ (SEQ ID NO: 6)) were generated by PCR using Taq DNA polymerase (Gibco/BRL) and U937 mRNA as template. A Sal I site was incorporated into the forward primer of JAK2 and JAK3, a Not I site was incorporated into the JAK2 reverse primer and a Xba I site was added to the reverse primer of JAK3.
(§6) A TEL/Jak2 fusion was generated by digestion of the TELPCR product with BamH I/Sa1 I, digestion of the JAK2 PCR product with Sa1 I/Not I followed by ligation and subcloning into the mammalian expression Vector pTRE 2 (Clontech) digested with BamH I-Not I (pTELJAK2). For JAK3 Sa1 I/Not I cleaved kinase domain PCR product was ligated with BamH I/Sa1 I cleaved TELproduct followed by ligation into BamH I/Not I cleaved pTRE2 (pTELJAK3).
(§7) The growth factor dependent myelomonocytic cell line BaF3 bearing the pTET-off plasmid (Clontech) was transfected with either pTELJAK2 or pTELJAK3 and the cells selected for factor independent growth. BaF 3 wild type cells were cultured in DMEM 10% FCS, 10% WEHI 3B conditioned medium. BaF3 TELJAK cells were cultured in DMEM 10% Tet-System Approved FBS (without WEHI 3B conditioned medium).
as §3, §4

[2] = test system: Tubulin (microtubule protein); experiment: Tubulin assay (turbidometric assay of microtubule assembly); type: biochemical; conditions: Table 1; 50 μM; absorbance at 340 nm, 37° C.
Procedure: Turbidometric assays of microtubule assembly were performed by incubating microtubule protein in cuvettes at 37° C. in a thermostatically controlled spectrophotometer measuring the change in absorbance at 340 nm over time. The microtubule protein was incubated with the each test compound at 0° C. and polymerisation was initiated by addition of 1 mM GTP, prior to heating to 37° C.

[3] = test system: K562 (Chronic Myeloid Leukemia); experiment: Cellular growth inhibition assay (MTT), K562; type: cell-based; conditions: Homo sapiens, Table 1, 40 hr incubation
Procedure: as §1, §2, §3, §4

DU145 (Prostate Cancer) = experiment: Cellular growth inhibition assay (MTT), DU145; type: cell-based; conditions: Homo sapiens, DU-145, Table 1, 40 hr incubation
Procedure: as §1, §2, §3, §4

[4] = target: T2, TelJak3 (BaF3 TELJAK cells, TEL/JAK3 fusion) (Homo sapiens, UniProt P52333); experiment: Cellular growth inhibition assay (MTT), BaF3 TEL:JAK3 cell line; type: cell-based; conditions: Table 1, 40 hr incubation
T2 construct: For JAK3 Sa1 I/Not I cleaved kinase domain PCR product was ligated with BamH I/Sa1 I cleaved TELproduct; expressed in transfected cells; host or cells: BaF3 cells bearing the pTET-off plasmid, transfected with pTELJAK3 (pTRE2 vector); the other entry of the earlier key: ETV6 (P41212, Transcription factor ETV6)
Procedure: as §1, §5, §6, §7, §3, §4

T1 sequence (O60674 with tags, fused parts or gaps): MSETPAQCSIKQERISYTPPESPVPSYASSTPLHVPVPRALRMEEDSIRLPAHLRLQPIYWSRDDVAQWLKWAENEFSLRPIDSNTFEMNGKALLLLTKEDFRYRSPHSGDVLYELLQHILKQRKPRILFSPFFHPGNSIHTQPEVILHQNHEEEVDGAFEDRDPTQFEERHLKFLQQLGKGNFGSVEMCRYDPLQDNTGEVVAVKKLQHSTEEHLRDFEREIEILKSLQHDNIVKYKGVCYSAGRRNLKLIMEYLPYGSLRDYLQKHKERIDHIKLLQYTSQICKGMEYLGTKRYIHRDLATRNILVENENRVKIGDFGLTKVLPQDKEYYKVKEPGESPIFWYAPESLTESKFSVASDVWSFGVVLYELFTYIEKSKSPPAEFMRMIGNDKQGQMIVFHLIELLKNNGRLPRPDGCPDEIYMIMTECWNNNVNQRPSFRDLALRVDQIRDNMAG
T2 sequence (P52333 with tags, fused parts or gaps): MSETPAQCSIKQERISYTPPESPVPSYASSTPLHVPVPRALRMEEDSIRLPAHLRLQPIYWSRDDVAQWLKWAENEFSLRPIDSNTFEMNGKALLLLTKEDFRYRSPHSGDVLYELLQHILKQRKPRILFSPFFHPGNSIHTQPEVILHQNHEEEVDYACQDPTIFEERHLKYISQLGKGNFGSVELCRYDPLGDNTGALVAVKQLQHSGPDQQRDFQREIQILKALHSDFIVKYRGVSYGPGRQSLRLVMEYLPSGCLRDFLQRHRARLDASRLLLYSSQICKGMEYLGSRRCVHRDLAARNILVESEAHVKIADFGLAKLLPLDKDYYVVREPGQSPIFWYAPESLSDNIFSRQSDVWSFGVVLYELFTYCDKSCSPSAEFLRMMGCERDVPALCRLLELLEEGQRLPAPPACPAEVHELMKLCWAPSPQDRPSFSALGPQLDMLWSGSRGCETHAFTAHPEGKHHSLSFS

SMILES	inhibition at 20 µM (PC3 (Prostate Cancer)) [%]	inhibition at 20 µM [1] [%]	Tubulin inhibition of tubulin polymerisation [2]	inhibition at 20 µM [3] [%]	inhibition at 20 µM (DU145 (Prostate Cancer)) [%]	inhibition at 20 µM [4] [%]
CCCC(Nc1cncc(-c2ccc(OCCCCN3CCN(C)CC3)c(OC)c2)n1)c1ccccc1 (stereo not drawn)	> 50	> 50	+ (compounds which inhibited tubulin polymerisation by greater than 50% at 50 μM)	> 50	> 50	> 50
CCNC(=O)Nc1ccc(-c2cncc(N[C@@H](COCC)c3ccccc3)n2)cc1OC	> 50	> 50	+ (compounds which inhibited tubulin polymerisation by greater than 50% at 50 μM)	> 50	> 50	> 50
CCCC(Nc1cncc(-c2ccc(OCCCCN)c(OC)c2)n1)c1ccccc1 (stereo not drawn)	> 50	> 50	+ (compounds which inhibited tubulin polymerisation by greater than 50% at 50 μM)	> 50	> 50	> 50
CCCC(Nc1cncc(-c2ccc(NC(=O)NCC)c(OC)c2)n1)c1cccnc1C (stereo not drawn)	> 50	> 50	+ (compounds which inhibited tubulin polymerisation by greater than 50% at 50 μM)	> 50	> 50	> 50
CCC[C@H](Nc1cncc(-c2ccc(NC(=O)NC)c(OC)c2)n1)c1cccnc1	> 50	> 50	+ (compounds which inhibited tubulin polymerisation by greater than 50% at 50 μM)	> 50	> 50	> 50
CCC[C@H](Nc1ccnc(-c2ccc(NC(=O)NCC)c(OC)c2)n1)c1cccnc1	> 50	> 50	+ (compounds which inhibited tubulin polymerisation by greater than 50% at 50 μM)	> 50	> 50	> 50
CCCC(Nc1cncc(-c2ccc(OCCCCN(CC)CC)c(OC)c2)n1)c1ccccc1 (stereo not drawn)	> 50	> 50	+ (compounds which inhibited tubulin polymerisation by greater than 50% at 50 μM)	> 50	> 50	> 50
CCCC(Nc1cncc(-c2ccc(O)c(OC)c2)c1)c1ccccc1 (stereo not drawn)	> 50	> 50	+ (compounds which inhibited tubulin polymerisation by greater than 50% at 50 μM)	> 50	> 50	> 50
CCCC(Nc1cc(-c2ccc(O)c(OC)c2)ncn1)c1cccnc1 (stereo not drawn)	> 50	> 50	+ (compounds which inhibited tubulin polymerisation by greater than 50% at 50 μM)	> 50	> 50	> 50
CCCC(Nc1cncc(-c2ccc(OCCCn3ccnc3)c(OC)c2)n1)c1ccccc1 (stereo not drawn)	> 50	> 50	+ (compounds which inhibited tubulin polymerisation by greater than 50% at 50 μM)	> 50	> 50	> 50
CCNC(=O)Nc1ccc(-c2cncc(N[C@@H](COC)c3ccccc3)n2)cc1OC	> 50	> 50	+ (compounds which inhibited tubulin polymerisation by greater than 50% at 50 μM)	> 50	> 50	> 50
CCCC(Nc1cncc(-c2ccc(OCCCN(CC)CC)c(OC)c2)n1)c1ccccc1 (stereo not drawn)	> 50	> 50	+ (compounds which inhibited tubulin polymerisation by greater than 50% at 50 μM)	> 50	> 50	> 50
CCC[C@H](Nc1cncc(-c2ccc(NC(=O)NCC)c(C)c2)n1)c1cccnc1	> 50	> 50	+ (compounds which inhibited tubulin polymerisation by greater than 50% at 50 μM)	> 50	> 50	> 50
CCCC(Nc1cncc(-c2ccc(NC(=O)NCCCN3CCOCC3)c(OC)c2)n1)c1cccnc1 (stereo not drawn)	> 50	> 50	+ (compounds which inhibited tubulin polymerisation by greater than 50% at 50 μM)	> 50	> 50	> 50
CCNC(=O)Nc1ccc(-c2cncc(NC(CCOC)c3ccccc3)n2)cc1OC (stereo not drawn)	> 50	> 50	+ (compounds which inhibited tubulin polymerisation by greater than 50% at 50 μM)	> 50	> 50	> 50
CCCC(Nc1cncc(-c2ccc(NC(=O)NCC)c(C)c2)n1)c1ccccn1 (stereo not drawn)	> 50	> 50	+ (compounds which inhibited tubulin polymerisation by greater than 50% at 50 μM)	> 50	> 50	> 50
CCCC(Nc1nc(-c2ccc(NC(=O)NCC)c(OC)c2)cnc1C)c1ccccc1 (stereo not drawn)	> 50	> 50	+ (compounds which inhibited tubulin polymerisation by greater than 50% at 50 μM)	> 50	> 50	> 50
CCNC(=O)Nc1ccc(-c2cncc(N[C@@H](CC)c3cccnc3)n2)cc1OC	> 50	> 50	+ (compounds which inhibited tubulin polymerisation by greater than 50% at 50 μM)	> 50	> 50	> 50
